Literature values in patent US20190255075A1, “TREATMENT OF PROSTATE CANCER” (priority 2018, published 2019).

Experiments:
[1] = test system: hormone refractory prostate cancer; conditions: single agent
prostate cancer cells = conditions: sirolimus used alone

## CO[C@H]1C[C@@H]2CC[C@@H](C)[C@@](O)(O2)C(=O)C(=O)N2CCCC[C@H]2C(=O)O[C@H]([C@H](C)C[C@@H]2CC[C@@H](O)[C@H](OC)C2)CC(=O)[C@H](C)/C=C(\C)[C@@H](O)[C@@H](OC)C(=O)[C@H](C)C[C@H](C)/C=C/C=C/C=C/1C [Sirolimus, sirolimus]
[1]; of twelve evaluable patients with hormone refractory prostate cancer
  patients with positive outcomes: two
[1]; one of the two responding patients, with partial radiographic response
  decrease in PSA: 50%
Prostate cancer cells
  effect on prostate cancer cells: limited effects
